Literature values, collected in patent US20020128208A1, “Nonpeptide agonists and antagonists of vasopressin receptors” (priority 2000, published 2002).

Biological target: V2, V1a or both receptor
Conditions: prior-art antagonists disclosed by other companies; receptor subtype and species not stated

| Structure (SMILES) | Ki |
| --- | --- |
| CC(C)(C)NC(=O)c1ccc(S(=O)(=O)N2C(=O)C3(CCC(OCCN4CCOCC4)CC3)c3ccccc32)cc1 (stereo not shown) [SR121463A] | 1.42 nM |
| Cc1ccc(F)cc1C(=O)Nc1ccc(C(=O)N2Cc3cccn3Cc3ccccc32)c(Cl)c1 [YM35087] | 1.8 nM |
| Cc1ccc(F)cc1C(=O)Nc1ccc(C(=O)N2Cc3cccn3Cc3ccccc32)c(Cl)c1 [VPA-985] | 0.5 nM |
| Cc1ccccc1C(=O)Nc1ccc(C(=O)N2CCCC(N(C)C)c3ccccc32)cc1 (stereo not shown) [OPC-31260] | 21.7 nM |
